In US11613538B2, “Method of inhibiting or reducing a viral infection” (PTC Therapeutics, Inc., priority 2009, dated 2023):

Test system: hypoxia-induced VEGF production in HeLa cells
Assay: cells
Assay type: cell-based, human
Conditions: Homo sapiens, HeLa

CCOC(=O)N1CCc2c([nH]c3ccc(Cl)cc23)C1c1cccc(OCCCN(C)CCOC)c1 (stereo not drawn) [Compound 1120]
EC50: 200 to 1000 nM

COc1ccc(C2c3[nH]c4ccc(Cl)cc4c3CCN2C(=O)[C@H](Cc2ccccc2)NC(C)=O)cc1 (stereo partly drawn) [Compound 1505]
EC50: > 1000 nM

CCOC(=O)N1CCc2c([nH]c3ccc(Cl)cc23)[C@@H]1c1ccc(OCC2(C)COC(C)(C)OC2)cc1 [Compound 1284]
EC50: < 8 nM

O=C(OC1CCCC1)N1CCc2c([nH]c3ccc(Cl)cc23)[C@@H]1c1ccc(OC[C@@H](O)CO)cc1 [Compound 1323]
EC50: < 8 nM

COc1ccc(C(=O)c2sc(N3CCc4c([nH]c5ccc(Cl)cc45)C3c3ccc(OC)cc3)nc2-c2ccccc2)cc1 (stereo not drawn) [Compound 1601]
EC50: < 8 nM

O=C(c1ccc(Cl)cc1)N1CCc2c([nH]c3ccc(Cl)cc23)C1c1ccc(OCCCN2CCOCC2)cc1 (stereo not drawn) [Compound 1136]
EC50: 40 to 200 nM

CCOC(=O)N1CCc2c([nH]c3ccc(Cl)cc23)[C@@H]1c1ccc(OCCC(O)CNS(=O)(=O)C2CC2)cc1 (stereo partly drawn) [Compound 1624]
EC50: < 8 nM

O=C(Oc1ccc(Cl)cc1)N1CCc2c([nH]c3ccc(Cl)cc23)C1c1ccc(OCCCOCCN2CCOCC2)cc1 (stereo not drawn) [Compound 1555]
EC50: < 8 nM

CCCOC(=O)N1CCc2c([nH]c3ccc(Cl)cc23)C1c1ccc(OCCCN2CCOCC2)cc1 (stereo not drawn) [Compound 1105]
EC50: < 8 nM

O=C(OCC1CC1)N1CCc2c([nH]c3ccc(Cl)cc23)[C@@H]1c1ccc(OC[C@@H](O)CO)cc1 [Compound 1380]
EC50: < 8 nM

CCOC(=O)N1CCc2c([nH]c3ccc(Cl)cc23)C1c1ccc(OCC(CO)CO)cc1 (stereo not drawn) [Compound 1208]
EC50: 8 to 40 nM

COc1ccc(C2NCCc3c2[nH]c2ccc(S(C)(=O)=O)cc32)cc1 (stereo not drawn) [Compound 1504]
EC50: > 1000 nM

CC#CCOC(=O)N1CCc2c([nH]c3ccc(Cl)cc23)C1c1cnc(OC)nc1 (stereo not drawn) [Compound 1692]
EC50: 8 to 40 nM

CCC(CO)(CO)COc1ccc([C@H]2c3[nH]c4ccc(Cl)cc4c3CCN2C(=O)OCC2CCC2)cc1 [Compound 1385]
EC50: < 8 nM

COc1ccc(OC(=O)N2CCc3c([nH]c4ccc(S(C)(=O)=O)cc34)C2c2ccc(OC)cc2)cc1 (stereo not drawn) [Compound 1498]
EC50: > 1000 nM

CCOC(=O)N1CCc2c([nH]c3ccc(Cl)cc23)[C@@H]1c1ccc(OCCCNCC2CCCO2)cc1 (stereo partly drawn) [Compound 1610]
EC50: 40 to 200 nM

CN1CCN(C[C@H](O)COc2ccc([C@H]3c4[nH]c5ccc(Cl)cc5c4CCN3c3ncccn3)cc2)CC1 [Compound 1308]
EC50: < 8 nM

CC(C)OC(=O)N1CCc2c([nH]c3ccc(Br)cc23)C1c1ccc(OCC(C)(CO)CO)cc1 (stereo not drawn) [Compound 1350]
EC50: < 8 nM

O=C(OCC1CCCC1)N1CCc2c([nH]c3ccc(Cl)cc23)[C@@H]1c1ccc(O)cc1 [Compound 1631]
EC50: 40 to 200 nM

CCOC(=O)N1CCc2c([nH]c3ccc(Cl)cc23)[C@@H]1c1ccc(Oc2ncc(CS(C)(=O)=O)s2)cc1 [Compound 1700]
EC50: < 8 nM

CCOC(=O)N1CCc2c([nH]c3ccc(Cl)cc23)C1c1ccc(OC)nc1 (stereo not drawn) [Compound 1480]
EC50: 8 to 40 nM

O=C(Oc1ccc(Cl)cc1)N1CCc2c([nH]c3ccc(Cl)cc23)C1c1ccc(OCCCN2CC[C@@H](O)C2)cc1 (stereo partly drawn) [Compound 1476]
EC50: 40 to 200 nM

CC(C)OC(=O)N1CCc2c([nH]c3ccc(Br)cc23)C1c1ccc(OCC(O)CO)cc1 (stereo not drawn) [Compound 1341]
EC50: 8 to 40 nM

CC#CCOC(=O)N1CCc2c([nH]c3ccc(Cl)cc23)C1c1ccc(OCC(N)=O)cc1 (stereo not drawn) [Compound 1212]
EC50: 8 to 40 nM

CC(C)COC(=O)N1CCc2c([nH]c3ccc(Cl)cc23)C1c1ccc(OCCNc2ncncn2)cc1 (stereo not drawn) [Compound 1436]
EC50: < 8 nM

CC(C)(C)OC(=O)N1CCc2c([nH]c3ccc(Cl)cc23)C1c1ccc(OCCCCl)cc1 (stereo not drawn) [Compound 1189]
EC50: < 8 nM

C=CCOC(=O)N1CCc2c([nH]c3ccc(Cl)cc23)C1c1ccc(OCCCO)cc1 (stereo not drawn) [Compound 1060]
EC50: < 8 nM

COc1ccc(C2c3[nH]c4cccc(Br)c4c3CCN2C(=O)OCCF)cc1 (stereo not drawn) [Compound 1522]
EC50: 200 to 1000 nM

CC#CCOC(=O)N1CCc2c([nH]c3ccc(Cl)cc23)[C@@H]1c1ccc(OCCCCl)cc1 [Compound 1294]
EC50: < 8 nM

COc1ccc(C2c3[nH]c4ccc(S(C)(=O)=O)cc4c3CCN2C(=S)Oc2ccc(F)cc2)cc1 (stereo not drawn) [Compound 1500]
EC50: > 1000 nM

COc1ccc(C2c3[nH]c4cccc(Br)c4c3CCN2C(=O)Oc2ccc(F)cc2)cc1 (stereo not drawn) [Compound 1524]
EC50: 40 to 200 nM

COc1cc(C2c3[nH]c4ccc(Cl)cc4c3CCN2C(=O)Oc2ccc(F)cc2)ccc1OCCCn1nccn1 (stereo not drawn) [Compound 1148]
EC50: 8 to 40 nM

CCOC(=O)N1CCc2c([nH]c3ccc(Cl)cc23)[C@@H]1c1ccc(OC2OC(CO)C(O)C(O)C2O)cc1 (stereo partly drawn) [Compound 1696]
EC50: > 1000 nM

COc1ccc(OC(=O)N2CCc3c([nH]c4ccc(Cl)cc34)C2c2ccc(OC)nc2)cc1 (stereo not drawn) [Compound 1478]
EC50: 40 to 200 nM

CCOC(=O)N1CCc2c([nH]c3ccc(Cl)cc23)[C@@H]1c1ccc(OCCC(O)CN2CCOCC2)cc1 (stereo partly drawn) [Compound 1272]
EC50: < 8 nM

CC(C)(C)COC(=O)N1CCc2c([nH]c3ccc(Cl)cc23)C1c1ccc(OCC2OCCO2)cc1 (stereo not drawn) [Compound 1038]
EC50: < 8 nM

CCOC(=O)N1CCc2c([nH]c3ccc(Cl)cc23)C1c1ccc(OCC(O)CNS(=O)(=O)C2CC2)cc1 (stereo not drawn) [Compound 1475]
EC50: < 8 nM

CCOC(=O)N1CCc2c([nH]c3ccc(Cl)cc23)C1c1ccc(OCC(O)CO)cc1 (stereo not drawn) [Compound 1000]
EC50: 8 to 40 nM

CS(=O)(=O)CCCOc1ccc(C2c3[nH]c4ccc(Cl)cc4c3CCN2C(=O)Oc2ccc(Cl)cc2)cc1 (stereo not drawn) [Compound 1551]
EC50: < 8 nM

CCOC(=O)NCC(O)CCOc1ccc([C@H]2c3[nH]c4ccc(Cl)cc4c3CCN2C(=O)OCC)cc1 (stereo partly drawn) [Compound 1665]
EC50: 8 to 40 nM

O=C(Oc1ccc(Cl)cc1)N1CCc2c([nH]c3ccc(Cl)cc23)[C@@H]1c1ccc(OC[C@H](O)CN2CCOCC2)cc1 [Compound 1070]
EC50: < 8 nM

CCOC(=O)N1CCc2c([nH]c3ccc(Cl)cc23)[C@@H]1c1ccc(OC[C@H](O)CO)cc1 [Compound 1221]
EC50: < 8 nM

O=C(OCC1CCC1)N1CCc2c([nH]c3ccc(Cl)cc23)[C@@H]1c1ccc(OCC2(CO)COCOC2)cc1 [Compound 1386]
EC50: 8 to 40 nM

COc1ccc(C2c3[nH]c4ccc(Cl)cc4c3CCN2C(=O)OCCn2ccnn2)cc1 (stereo not drawn) [Compound 1157]
EC50: 200 to 1000 nM

COc1ccc(C2c3[nH]c4ccc(Cl)cc4c3CCN2C(=O)Oc2ccc(Cl)cc2)cn1 (stereo not drawn) [Compound 1479]
EC50: 8 to 40 nM

CCC(CO)(CO)COc1ccc(C2c3[nH]c4ccc(Br)cc4c3CCN2C(=O)OC(C)C)cc1 (stereo not drawn) [Compound 1355]
EC50: < 8 nM

CC(C)(C)COC(=O)N1CCc2c([nH]c3ccc(Cl)cc23)C1c1ccc(OCC[C@H](O)CO)cc1 (stereo partly drawn) [Compound 1177]
EC50: < 8 nM

COc1ccc(C2c3[nH]c4ccc(Cl)cc4c3CCN2C(=O)C(=O)Oc2ccc(F)cc2)cc1 (stereo not drawn) [Compound 1722]
EC50: > 1000 nM

COc1ccc([C@H]2c3[nH]c4ccc(Cl)cc4c3CCN2C(=O)OCC2CCC2)cc1 [Compound 1372]
EC50: < 8 nM

CCOC(=O)N1CCc2c([nH]c3ccc(Cl)cc23)C1c1ccc(OCC(O)CNC(=O)COC)cc1 (stereo not drawn) [Compound 1085]
EC50: < 8 nM

COc1ccc(C2c3[nH]c4cc(F)ccc4c3CCN2C(=O)Oc2ccc(Cl)cc2)cc1 (stereo not drawn) [Compound 1461]
EC50: 200 to 1000 nM

CCOC(=O)N1CCc2c([nH]c3ccc(S(C)(=O)=O)cc23)C1c1ccc(OC)cc1 (stereo not drawn) [Compound 1496]
EC50: > 1000 nM

CCOC(=O)N1CCc2c([nH]c3ccc(Cl)cc23)C1c1ccc(OCC(O)CNC(=O)c2cccnc2)cc1 (stereo not drawn) [Compound 1468]
EC50: < 8 nM

CCOC(=O)NC[C@H](O)COc1ccc([C@H]2c3[nH]c4ccc(Cl)cc4c3CCN2C(=O)OCC)cc1 [Compound 1651]
EC50: < 8 nM

CCOC(=O)N1CCc2c([nH]c3ccc(Cl)cc23)[C@@H]1c1ccc(OCC(CC)(CO)CO)cc1 [Compound 1324]
EC50: < 8 nM

COc1ccc(C2NCCc3c2[nH]c2ccc(SC)cc32)cc1 (stereo not drawn) [Compound 1487]
EC50: > 1000 nM

O=C(Oc1ccc(Cl)cc1)N1CCc2c([nH]c3ccc(Cl)cc23)C1c1ccc(OCCCN(CCO)CCO)cc1 (stereo not drawn) [Compound 1184]
EC50: < 8 nM

CCC(CO)(CO)COc1ccc([C@H]2c3[nH]c4ccc(Cl)cc4c3CCN2C(=O)OCC(C)C)cc1 [Compound 1326]
EC50: < 8 nM

CCOC(=O)N1CCc2c([nH]c3ccc([S+](C)[O-])cc23)C1c1ccc(OC)cc1 (stereo not drawn) [Compound 1488]
EC50: > 1000 nM

CCOC(=O)N1CCc2c([nH]c3ccc(Cl)cc23)C1c1ccc(OCC(=O)NCCO)cc1 (stereo not drawn) [Compound 1013]
EC50: 8 to 40 nM

COc1ccc(OC(=O)N2CCc3c([nH]c4cc(F)ccc34)C2c2ccc(OC(F)F)cc2)cc1 (stereo not drawn) [Compound 1462]
EC50: 200 to 1000 nM

CN1CCN(CCCOc2ccc(C3c4[nH]c5ccc(Cl)cc5c4CCN3C(=O)Oc3ccccc3)cc2)CC1 (stereo not drawn) [Compound 1076]
EC50: 40 to 200 nM

CC#CCOC(=O)N1CCc2c([nH]c3ccc(Cl)cc23)C1c1ccc(OCCn2cc(C(N)=O)c(N)n2)cc1 (stereo not drawn) [Compound 1404]
EC50: 40 to 200 nM

CCOC(=O)CNC(=O)c1cccc(C2c3[nH]c4ccc(Cl)cc4c3CCN2C(=O)OCC)c1 (stereo not drawn) [Compound 1387]
EC50: 40 to 200 nM

COc1ccc(C2c3[nH]c4ccc(Cl)cc4c3CCN2C(=O)C(=O)NC(C)C)cc1 (stereo not drawn) [Compound 1707]
EC50: 40 to 200 nM

CC#CCOC(=O)N1CCc2c([nH]c3ccc(Cl)cc23)C1c1ccc(OCC2OCCO2)cc1 (stereo not drawn) [Compound 1047]
EC50: < 8 nM

CCOC(=O)N1CCc2c([nH]c3ccc(Cl)cc23)C1c1ccc(OCC(O)CNC(=O)c2ccccn2)cc1 (stereo not drawn) [Compound 1469]
EC50: < 8 nM

O=C(Oc1ccc(Cl)cc1)N1CCc2c([nH]c3ccc(Cl)cc23)[C@@H]1c1ccc(OC2CCN(C[C@H](O)CO)CC2)cc1 [Compound 1704]
EC50: 8 to 40 nM

O=C(OCCF)N1CCc2c([nH]c3cc(Br)ccc23)C1c1ccc(OC(F)F)cc1 (stereo not drawn) [Compound 1448]
EC50: 200 to 1000 nM

COc1ncc(C2NCCc3c2[nH]c2ccc(Cl)cc32)cn1 (stereo not drawn) [Compound 1688]
EC50: > 1000 nM

CC#CCOC(=O)N1CCc2c([nH]c3ccc(Cl)cc23)[C@@H]1c1ccc(OC2CCN(C)CC2)cc1 [Compound 1684]
EC50: 8 to 40 nM

CCOC(=O)N1CCc2c([nH]c3ccc(Cl)cc23)C1c1ccc(OCCC2CCCN2C)cc1 (stereo not drawn) [Compound 1006]
EC50: 40 to 200 nM
